Laboratory results taken from patent publication US12263248B2, “Compounds and compositions for intracellular delivery of therapeutic agents” (ModernaTX, Inc., priority 2018, dated 2025).
Read-outs that look alike come from different tables or passages of the source. Marks after values point to notes of the source that are not given here.

Key:
[1] = Residual lipid levels in rat liver and spleen (UPLC-MS); type: in vivo; conditions: for % dose remaining Rat liver tissue, 48 h: Sprague Dawley rat liver 48 h after 2 mg/kg bolus dose mRNA; for % Lipid Remaining in liver, 48 h / % remaining dose in liver, 48 h: rats; for % Lipid Remaining in liver, 48 h: 2 mpk, assuming 300 g rat and 15 g liver; for % remaining dose in liver, 48 h: intravenous, 2.0 mpk
Summary of the method: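 Rats received a single intravenous dose of lipid nanoparticle composition, and liver tissue was later collected to quantify residual lipid. Weighed tissue was homogenized in Milli-Q water (900 μL per 100 mg tissue) using an Omni probe homogenizer. 50 μL aliquots were mixed with 400 μL spiking solution, vortexed, centrifuged, and analyzed by UPLC on a C8 column with positive-mode ESI detection on a Sciex API5500 mass spectrometer.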

[2] = Pharmacokinetics of lipids in mice; type: in vivo; parameters: AUC / AUCall Mean: concentration or dose not given beside the values; conditions: mouse; for AUC: read-out: AUCall Mean; for Tmax: read-out: Tmax
Experimental: FIGS. 45A and 45B are a pair of graphs illustrating pharmacokinetics of lipids of the disclosure in mice. Mice were administered compositions comprising Compound 50 (FIG. 45A) or Compound 301 (FIG. 45B), in nanoparticle compositions containing DSPC and PEG 1.

[3] = system: hEPO mRNA; test: hEPO expression after subcutaneous administration to mice; type: in vivo, female CD-1 mice
Summary of the method: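 Lipid nanoparticle formulations carrying hEPO or luciferase mRNA were given subcutaneously at 0.5 mpk to female CD-1 mice. Whole-body luminescence imaging was done at 3, 6 and 24 h. Liver, spleen and injection-site expression were assessed ex vivo at 24 h.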

[4] = system: hEPO mRNA; test: hEPO expression after intravenous administration to rats; type: in vivo, rat; conditions: for Lipid/MC3 hEPO expression: 6 hours after administration; for hEPO expression / hEPO expression 0.25 h / hEPO expression 0.5 h / hEPO expression 1 h / hEPO expression 2 h / hEPO expression 4 h / hEPO expression 8 h / hEPO expression 24 h / hEPO expression 48 h: rat; for hEPO expression: 6 h, i.v.; for hEPO expression / Lipid/MC3 hEPO conc. ratio 2 mpk: 2 mpk; for hEPO expression 0.25 h / hEPO expression 0.5 h / hEPO expression 1 h / hEPO expression 2 h / hEPO expression 4 h / hEPO expression 8 h / hEPO expression 24 h / hEPO expression 48 h / Lipid/MC3 hEPO conc. ratio 0.2 mpk / Lipid/MC3 hEPO conc. ratio 2 mpk: intravenous; for hEPO expression 0.25 h / hEPO expression 0.5 h / hEPO expression 1 h / hEPO expression 2 h / hEPO expression 4 h / hEPO expression 8 h / hEPO expression 24 h / hEPO expression 48 h / Lipid/MC3 hEPO conc. ratio 0.2 mpk: 0.2 mpk; for Lipid/MC3 hEPO conc. ratio 0.2 mpk / Lipid/MC3 hEPO conc. ratio 2 mpk: rats, 6 hours
Summary of the method: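 Rats dosed intravenously once with nanoparticle composition, 0.2 or 2.0 mpk, formulated by the standard MC3 method. Tail-vein blood sampled at 6 h or at time points from 0.25 to 48 h. hEPO measured by ELISA.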

[5] = Clinical chemistry and hematology in rat, 2 mpk i.v., 48 h; type: in vivo; conditions: intravenous, 48 h post dose
Experimental: Sample formulations of nanoparticle compositions including different lipids were administered intravenously to rat at a dose of 2 mpk. The expression of various clinical markers was evaluated at 48 h post dose and compared to that induced by administration of MC3 formulations or phosphate buffered saline (PBS).

[6] = system: hEPO mRNA; test: hEPO expression and cytokine induction after intravenous administration to mice; type: in vivo
Experimental: The expression of hEPO and cytokine induction in mice intravenously administered a nanoparticle composition at a dose of 0.5 mpk were measured at 3, 6, and 24 hours. […] The expression of hEPO in mice intramuscularly administered a nanoparticle composition from Table 1B at a dose of 0.01 mpk were measured at 3, 6, and 24 hours.
Blood collection and analysis for hEPO. Blood was collected from mice or rats via the tail vein and hEPO concentrations were determined using a hEPO ELISA assay.

[7] = Liver, * = 2 terminal datapoints estimation
[8] = Spleen, * = 2 terminal datapoints estimation
[9] = mice, intravenous, 0.5 mpk, 6 h

| SMILES | % dose remaining Rat liver tissue, 48 h [1] | % lipid remaining in liver after 48 hours [1] [%] | % Lipid Remaining in liver, 48 h [1] [%] | % remaining dose in liver, 48 h [1] [%] | Cmax ([2]; Liver) [ng/mL] | HL [2, 7] [h] | AUC ([2]; Liver) [ng·h/mL] | Tmax ([2]; Liver) [h] | Cmax ([2]; Plasma) [ng/mL] | HL ([2]; Plasma) [h] | AUC ([2]; Plasma) [ng·h/mL] | Tmax ([2]; Plasma) [h] | Cmax ([2]; Spleen) [ng/mL] | HL [2, 8] [h] | AUC ([2]; Spleen) [ng·h/mL] | Tmax ([2]; Spleen) [h] | Lipid/MC3 hEPO expression ([4]; 2 mpk dose to rat) | hEPO expression [4] [pg/mL] | hEPO expression 0.25 h [4] [pg/mL] | Lipid/MC3 hEPO conc. ratio 2 mpk [4] | other results |
| --- | --- | --- | --- | --- | --- | --- | --- | --- | --- | --- | --- | --- | --- | --- | --- | --- | --- | --- | --- | --- | --- |
| CCCCCCCCCCCOC(=O)CCCCCN(CCO)CCCCCCCC(=O)OC(CCCCCCCC)CCCCCCCC [Compound 25, Heptadecan-9-yl 8-((2-hydroxyethyl)(6-oxo-6-(undecyloxy)hexyl)amino)octanoate] | 1.3^e % | 1.32 | 1.32 | 1.3 | 17900 | 6.9 | 89200 | 1 | 37500 | 2.3 | 35400 | 0.5 | 20400 | 15.2 | 259000 | 4 | 2.13 | 3.05e+07 | 0 | 2.13 | Novel lipid/MC3 expression ratio, 6 hr. time point, s.c. hEPO 0.5 mpk ([3]; relative to MC3): 5.43; Lipid/MC3 hEPO expression ([4]; 0.2 mpk dose to rat): 2.41; hEPO expression 0.5 h [4]: 19553 pg/mL; hEPO expression 1 h [4]: 434299 pg/mL; hEPO expression 2 h [4]: 2042807 pg/mL; hEPO expression 4 h [4]: 3176560 pg/mL; hEPO expression 8 h [4]: 2631633 pg/mL; hEPO expression 24 h [4]: 869374 pg/mL; hEPO expression 48 h [4]: 103089 pg/mL; Lipid/MC3 hEPO conc. ratio 0.2 mpk [4]: 2.41; Concentration Alanine aminotransferase [5]: 52; Concentration Aspartate aminotransferase [5]: 124.5; Concentration Lymphocytes [5]: 15924; Concentration Monocytes [5]: 2122; Concentration Neutrophils [5]: 1998 |
| CCCCCCCCCOC(=O)CCCCCCCN(CCO)CCCCCCCC(=O)OC(CCCCCCCC)CCCCCCCC [Compound 18, Heptadecan-9-yl 8-((2-hydroxyethyl)(8-(nonyloxy)-8-oxooctyl)amino)octanoate] | 0.02^e % | 0.018 | 0.018 | <1 | 6050 | 5.8 | 16900 | 1 | 44200 | 1.2 | 61800 | 0.5 | 3770 | 10.6 | 39400 | 4 | 0.81 | 9.96e+06 | 20227 | 0.81 | hEPO expression Lipid/MC3 ratio, 6 hr. ([3]; 0.5 mpk, 6 hr.): 2.63; hEPO expression Lipid/MC3 ratio, AUC ([3]; 0.5 mpk, AUC): 1.88; hEPO expression and average total flux compared with MC3 ([6]; Table 12 comparison, in words): outperform MC3; hEPO concentrations compared with MC3 formulations ([6]; mice, i.v., 0.5 mpk, 3, 6 and 24 hours): higher hEPO concentrations than MC3 formulations; hEPO expression 3 h ([6]; mice, intravenous, 0.5 mpk, 3 h): 3e+06 pg/mL; Average hEPO concentration (pg/ml, 6 h) [6, 9]: 3.38e+06 pg/mL; Cytokine expression IL-6 (6 h) [6, 9]: 10.16 pg/mL; Cytokine expression IP-10 (6 h) [6, 9]: 299.93 pg/mL; hEPO expression 6 h [6, 9]: 3.38e+06 pg/mL; Fold increase in hEPO concentration relative to MC3 ([6]; mice, intravenous, 0.5 mpk, 6 h, Table 12): 1.85; hEPO expression 24 h ([6]; mice, intravenous, 0.5 mpk, 24 h): 1.8e+06 pg/mL; hEPO expression 0.5 h [4]: 20743 pg/mL; hEPO expression 1 h [4]: 194353 pg/mL; hEPO expression 2 h [4]: 238107 pg/mL; hEPO expression 4 h [4]: 514807 pg/mL; hEPO expression 8 h [4]: 915320 pg/mL; hEPO expression 24 h [4]: 412051 pg/mL; hEPO expression 48 h [4]: 52361 pg/mL |
| CCCCCCCCCN(CCO)CCCCCCCC(=O)OC(CCCCCCCC)CCCCCCCC [Compound 3, Heptadecan-9-yl 8-((2-hydroxyethyl)(nonyl)amino)octanoate] | – | – | 14 | 14.2 | – | – | – | – | – | – | – | – | – | – | – | – | – | 1.74e+07 | – | 1.21 | Lipid/MC3 hEPO conc. ratio 0.2 mpk [4]: 2.41; Concentration Alanine aminotransferase [5]: 53.5; Concentration Aspartate aminotransferase [5]: 87.5; Concentration Lymphocytes [5]: 12051; Concentration Monocytes [5]: 2103; Concentration Neutrophils [5]: 3388.5 |
